In patent US20170298051A1, “ACTIVATOR OF ADIPONECTIN RECEPTOR” (THE UNIVERSITY OF TOKYO, priority 2013, published 2017):

Molecular target: T1, AdipoR1 (Homo sapiens, UniProt Q96A54)
T1 sequence (Q96A54 1-375): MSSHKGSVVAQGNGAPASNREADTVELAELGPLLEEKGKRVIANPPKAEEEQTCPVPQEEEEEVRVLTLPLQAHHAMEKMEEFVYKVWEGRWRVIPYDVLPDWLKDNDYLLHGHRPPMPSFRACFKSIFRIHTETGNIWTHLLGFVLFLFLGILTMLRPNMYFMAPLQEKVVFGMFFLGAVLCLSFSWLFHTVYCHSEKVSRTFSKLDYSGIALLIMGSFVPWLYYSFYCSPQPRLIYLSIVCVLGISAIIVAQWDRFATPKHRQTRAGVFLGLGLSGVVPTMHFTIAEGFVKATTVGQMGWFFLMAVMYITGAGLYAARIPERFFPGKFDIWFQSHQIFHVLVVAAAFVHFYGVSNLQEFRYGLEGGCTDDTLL
Assay: Measurement of AMPK phosphorylation ability (Assay 1), HEK 293T cells, Western blotting
Type: cell-based
Design: HEK 293T cells (ATCC; CRL-3216, medium; host or cells: HEK 293T
Details: 10 minutes
Procedure: The AMPK phosphorylation ability of the respective compounds according to the present invention was measured by using differentiated C2C12 cells or HEK 293T cells.
HEK 293T cells (ATCC; CRL-3216, medium; DMEM, Fetal Bovine Serum (FBS)) were cultured in a 12- or 24-well plate until they reached 100% confluency (37° C., 5% CO2).
After starvation, a test compound listed in Tables 10 and 11 (concentration: 25 μM, 50 μM) was added thereto, and after 10 minutes, the medium was discarded and the plate was frozen with liquid nitrogen.
To the 12- or 24-well cell plate which had been frozen was added 100 or 150 μL of Cell lysis buffer pH 7.4 (50 mM HEPES (pH 7.4), 2 mM sodium orthovanadate, 10 mM sodium pyrophosphate, 10 mM NaF, 2 mM EDTA, 2 mM EGTA, 0.1% (v/v) NP-40, 0.2 mM PMSF), and the cells were scraped off with a cell scraper, suspended and transferred into a micro centrifugal tube. And then, the cells were ultrasonically crushed (1 second×3 times) with a sonicator. Centrifugation was performed at 4° C. at 15,000 rpm for 15 minutes, and the supernatant was recovered into a new tube.
To 100 μL of the supernatant was added 25 μL of 5× sample buffer (280 mM Tris-HCl (pH 6.9), 40% glycerol, 10% (3-mercaptoethanol, 13% SDS, a small amount of bromophenol blue) and mixed together. The rest of the supernatant was used for protein quantification, and the protein concentrations were uniformed by adding 1× sample buffer depending on the concentration of each sample.
An electrophoresis chamber was filled with 1× SDS buffer (25 mM Tris-HCl, 250 mM glycine, 0.1% SDS), and the sample was applied to a well of polyacrylamide gel. Electrophoresis was performed until the bromophenol blue in the sample reached to the bottom of the gel.
A filter paper was soaked in 1× Transfer buffer sufficiently, above which the PVDF membrane and the gel after electrophoresis were stacked in this order, and thereabove a filter paper which had been soaked in 1× Transfer buffer sufficiently was further stacked, from which an air was removed and the resultant was set in semi-dry type transfer apparatus and transferred (7V, 35 minutes).
An unnecessary portion of the blotted membrane was cutoff, and the rest was immediately soaked in blocking buffer (5% skimmed milk in Rinse buffer), and shaken at room temperature at 40 rpm for 3 hours.
After blocking, the membrane was transferred into Rinse buffer, and washed at room temperature for 10 minutes while shaking. The membrane was soaked in a primary antibody solution (AMPK alpha Antibody (Cell signaling; #2532) 1/1,000 in Rinse buffer, Phospho-AMPK alpha (Thr172) (40H9) antibody (Cell signaling; #2535) 1/1,000 in Rinse buffer), and shaken at 4° C. at 40 rpm overnight.
The membrane was soaked in a secondary antibody solution (goat anti-rabbit IgG-HRP Antibody (Santa Cruz; sc-2030) 1/2,000 in Rinse buffer), and shaken at room temperature at 40 rpm for 1 hour.
After the membrane was washed for 45 minutes in the same way as after the primary antibody reaction, the membrane was soaked in a chemiluminescent reaction solution (ECL Western Blotting Detection Reagents, GE Healthcare) for about 1 minute. An excess of the reaction solution was removed, and then the membranes were arranged on a transparent film and sandwiched with it, with which an X-ray film was exposed in a darkroom (for about several seconds to 60 seconds) to develop the film.
The X-ray film was scanned to take the image, for which the band was measured by using the image analysis software “Image J” to determine the respective amounts of pAMPK and AMPK.

Row | Compound | pAMPK/AMPK (%) (25 μM) | pAMPK/AMPK (%) (50 μM)
1 | Cc1cc(OCC(=O)NC2CCN(C(N)=O)CC2)ccc1C(C)C [Compound 3] | 39.02 | 44.32
2 | CCC(=O)c1ccc(OCC(=O)NC2CCN(Cc3ccc(Cl)c(Cl)c3)CC2)cc1 [Compound 17] | 88.72 | 75.82
3 | CCC(=O)c1ccc(OCC(=O)NC2CCN(Cc3ccccc3)CC2C)cc1 (stereo not drawn) [Compound 18] | 59.58 | 72.81
4 | CCOc1ccc(C(=O)N2CCC(NC(=O)COc3ccc([N+](=O)[O-])cc3)CC2)cc1 [Compound 22] | 61.45 | 67.26
5 | CCOc1ccccc1C(=O)N1CCC(NC(=O)OCc2ccc([N+](=O)[O-])cc2)CC1 [Compound 23] | 51.41 | 49.81
6 | COc1ccc(CN2CCC(NC(=O)COc3ccc([N+](=O)[O-])cc3)CC2)cc1F [Compound 24] | 23.68 | 60.46
7 | CCOc1ccc(C(=O)N2CCC(NC(=O)COc3ccc(N4CCCC4=O)cc3)CC2)cc1 [Compound 27] | 45.54 | 37.30
8 | Cc1cccc(CN2CCC(NC(=O)COc3ccc(C4SCCCS4)cc3)CC2)c1 [Compound 28] | 71.21 | 78.89
9 | Cc1ccc(C(=O)N2CCC(NC(=O)COc3ccc(C4SCCCS4)cc3)CC2)cc1 [Compound 29] | 72.45 | 74.42
10 | CCCOc1ccc(OCC(=O)NC2CCN(C(=O)c3ccc(C)cc3)CC2)cc1 [Compound 42] | 69.97 | 89.62
11 | CCCOc1ccc(OCC(=O)NC2CCN(C(=O)c3ccc(OCC)cc3)CC2)cc1 [Compound 44] | 72.14 | 78.77
12 | COc1ccccc1CN1CCN(C(=O)CCNC(=O)c2ccccc2C)CC1 [Compound 49] | 42.40 | 34.07
13 | COc1ccc(CN2CCN(C(=O)CCNC(=O)c3ccccc3C)CC2)cc1OC [Compound 50] | 39.00 | 71.13
14 | COc1ccc(CN2CCN(C(=O)CCNC(=O)c3ccccc3)CC2)c(OC)c1OC [Compound 51] | 33.33 | 55.14
15 | CC(C)(C)c1ccc(C(=O)NCCC(=O)N2CCN(Cc3cccc(O)c3)CC2)cc1 [Compound 52] | 66.63 | 85.17
16 | O=C(NCCC(=O)N1CCN(Cc2cccc(O)c2)CC1)c1ccc(Cl)cc1 [Compound 54] | 57.51 | 33.78
17 | O=C(NCCC(=O)N1CCN(Cc2ccc(F)cc2Cl)CC1)c1ccc(Cl)cc1 [Compound 55] | 61.64 | 105.20
18 | O=C(NCCC(=O)N1CCN(Cc2cccc(O)c2)CC1)c1ccc(Br)cc1 [Compound 56] | 49.23 | 40.38
19 | COc1ccccc1CN1CCN(C(=O)CCNC(=O)c2ccc(Cl)cc2)CC1 [Compound 57] | 30.26 | 45.31
20 | COc1ccccc1CN1CCN(C(=O)CCNC(=O)c2ccc(Br)cc2)CC1 [Compound 58] | 41.20 | 62.58
21 | COc1ccc(CN2CCN(C(=O)CCNC(=O)c3ccc(Br)cc3)CC2)cc1OC [Compound 59] | 74.09 | 78.14
22 | COc1ccc(CN2CCN(C(=O)CCNC(=O)c3ccc(Cl)cc3)CC2)c(OC)c1OC [Compound 60] | 34.44 | 76.81
23 | CCOc1ccc(CN2CCN(C(=O)CCNC(=O)c3ccc(F)cc3Cl)CC2)cc1 [Compound 61] | 78.20 | 76.51
24 | COc1ccc(CN2CCN(C(=O)CCNC(=O)c3ccc(F)cc3F)CC2)cc1OC [Compound 62] | 72.75 | 80.92
25 | Cc1ccccc1CN1CCN(C(=O)CCNC(=O)c2ccc([N+](=O)[O-])cc2)CC1 [Compound 63] | 65.40 | 68.22
26 | COc1ccc(CN2CCN(C(=O)CCNC(=O)c3ccc([N+](=O)[O-])cc3)CC2)cc1 [Compound 65] | 62.79 | 69.84

Continued, values first:

Row | pAMPK/AMPK (%) (25 μM) | pAMPK/AMPK (%) (50 μM) | Compound
27 | 70.10 | 63.92 | Cc1ccccc1CN1CCC(NC(=O)COc2ccc(C(C)C)cc2)CC1 [Compound 1]
28 | 77.78 | 90.47 | CC(C)c1ccc(OCC(=O)NC2CCN(C(C)c3ccccc3)CC2)cc1 (stereo not drawn) [Compound 2]
29 | 47.44 | 45.44 | COc1ccccc1CN1CCC(NC(=O)COc2ccc(C)cc2)CC1 [Compound 4]
30 | 69.72 | 62.88 | CCc1ccc(OCC(=O)NC2CCN(Cc3ccc(OC)c(F)c3)CC2)cc1 [Compound 5]
31 | 24.57 | 60.56 | CC(C)(C)c1ccc(OCC(=O)NC2CCN(Cc3ccc(F)cc3)CC2)cc1 [Compound 6]
32 | 79.86 | 94.13 | CC(c1ccccc1)N1CCC(NC(=O)COc2ccc(-c3ccccc3)cc2)CC1 (stereo not drawn) [Compound 7]
33 | 77.49 | 72.23 | Cc1ccc(C(=O)N2CCC(NC(=O)COc3ccc(C(F)(F)F)cc3)CC2)cc1 [Compound 8]
34 | 23.69 | 62.46 | CC(c1ccccc1)N1CCC(NC(=O)COc2ccc(C(F)(F)F)cc2)CC1 (stereo not drawn) [Compound 9]
35 | 83.62 | 72.56 | O=C(COc1ccc(I)cc1)NC1CCN(Cc2ccccc2)CC1 [Compound 10]
36 | 40.65 | 39.95 | COc1cc(C(C)=O)ccc1OCC(=O)NC1CCN(C(C)c2ccccc2)CC1 (stereo not drawn) [Compound 13]
37 | 63.62 | 51.87 | CC(=O)c1ccc(OCC(=O)NC2CCN(Cc3ccccc3)CC2C)cc1 (stereo not drawn) [Compound 14]
38 | 55.49 | 46.30 | CCC(=O)c1ccc(OCC(=O)NC2CCN(Cc3ccccc3C)CC2)cc1 [Compound 16]
39 | 47.30 | 60.30 | NC(=O)c1ccc(OCC(=O)NC2CCN(Cc3ccc(F)c(F)c3)CC2)cc1 [Compound 20]
40 | 40.07 | 42.87 | O=C(COc1ccc(N2CCCC2=O)cc1)NC1CCN(C(=O)c2ccccc2F)CC1 [Compound 25]
41 | 55.06 | 56.65 | CC1CN(Cc2ccccc2)CCC1NC(=O)COc1ccc(N2CCCC2=O)cc1 (stereo not drawn) [Compound 26]
42 | 64.98 | 61.18 | CCOc1ccc(OCC(=O)NC2CCN(Cc3ccccc3C)CC2)cc1 [Compound 39]
43 | 62.03 | 69.38 | CCCOc1ccc(OCC(=O)NC2CCN(Cc3ccccc3)C(C)C2)cc1 (stereo not drawn) [Compound 41]
44 | 77.13 | 82.95 | CCCOc1ccc(OCC(=O)NC2CCN(C(C)c3ccccc3)CC2)cc1 (stereo not drawn) [Compound 43]
45 | 67.44 | 82.01 | O=C(COc1ccc(Oc2ccccn2)cc1)NC1CCN(Cc2ccccc2)CC1 [Compound 45]
